This note sets out measurements from PubChem BioAssay AID179 (DTP/NCI, 2004).

Structures are written as SMILES. Calls of active or inactive are those of the source.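 How the source made its calls: active means compounds giving half or more protection of infected cells from virus-caused growth loss, again on retest; inactive means the rest.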 Where a SMILES comes first, the peptide text is derived from it.

A word on the EC50: it is the concentration at which the effect is half-maximal. For orientation: IC50 means the concentration that inhibits the measured activity by half. A high value points to a need for much substance.

This assay has as its system CEM cells HIV-1 protection, formazan growth assay. Kind of assay: NCI AIDS Antiviral Assay. Particulars: for IC50: measured here: growth of uninfected CEM cells. The procedure, abridged:
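Human CEM cells, uninfected and HIV-1-infected, received five drug concentrations, and growth was read by soluble formazan assay. Compounds giving at least 50% protection were retested; reproducible 100% protection defined confirmed active.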

Take `COc1cccc(NC(=O)CC(=O)N2N=C(C)C(N=Nc3ccc(C(=O)O)cc3)C2=O)c1` (stereo unspecified): the EC50 is > 200 µM and the IC50 was found to be 63.1 µM.
For `CC(=O)/C(=C/c1ccccc1F)C(=O)c1ccccc1`, in that order: > 26.9 µM and > 26.9 µM.
For `O[C@H]1c2cccn2-c2ccccc2S[C@H]1c1ccccc1`, in that order: > 83.2 µM and 43.7 µM.
For `CC1(C)OCC(COC(=O)C=[N+]=[N-])O1` (stereo unspecified), the EC50 was > 200 µM and the 50% inhibitory concentration (IC50) is > 200 µM.
As for `Nc1c(S(=O)(=O)O)cc(S(=O)(=O)O)c2ccc(N=Nc3ccc(/C=C/c4ccc(N=Nc5ccc6c(S(=O)(=O)O)cc(S(=O)(=O)O)c(N)c6c5O)cc4S(=O)(=O)O)c(S(=O)(=O)O)c3)c(O)c12`, the EC50 was 10.2 µM and the IC50 amounted to 51.3 µM.
Turning to `c1ccc2c(c1)C1=NCCN1c1ccccc1-2`, the EC50 is > 309 µM and the half-inhibitory concentration (IC50) is 1.86 µM.
In the case of `O=c1cc(NNc2ccc(F)cc2)[nH]c(=O)[nH]1`, the EC50 was > 200 µM and the concentration for half-maximal inhibition (IC50) came out at 2.95 µM.
Consider `CCOc1ccccc1NC(=O)C1=C(C)NC(C)=C(C(=O)Nc2ccccc2OCC)C1c1ccc(NC(C)=O)cc1`, for which the EC50 was > 12.6 µM and the IC50 is > 12.6 µM.
On to `CCOC(=O)Oc1cc2ccsc2c2c1c1ccccc1n2C(=O)OCC`, for which the EC50 is > 200 µM and the 50% inhibitory concentration (IC50) is 35.5 µM.
`COS(=O)(=O)OCCC(NC(=O)OCc1ccccc1)C(=O)OCc1ccccc1` (stereo unspecified): the EC50 is > 83.2 µM and the IC50 was > 83.2 µM.
As for `COc1ccc(CCN(C)C(=O)CC(C#N)(c2ccccc2)c2ccc(OC)c(OC)c2)cc1OC` (stereo unspecified), the EC50 was > 200 µM and the IC50 amounted to 95.5 µM.
Turning to `CC1CC(C)c2c(O)c3c(c(O)c2N1)C(=O)c1ccccc1C3=O` (stereo unspecified), the EC50 is > 16.2 µM and the IC50 turned out to be 8.71 µM.
As for `CCC[CH2][Sn]1([CH2]CCC)[O]CC(c2ccccn2)C[O]1`, the EC50 is > 49 µM and the IC50 turned out to be 10.7 µM.
`OCC1CC2CC1C1(C2)OCCO1` (stereo unspecified): the result was inactive.
As to `O=C(c1ccccc1)N1OCCC1Nc1ccc(Br)cc1` (stereo unspecified), the result was inactive.
Regarding `COc1ccc(Cl)cc1NC(=O)O/N=C(\Cl)C(C)C`, the EC50 was > 20 µM and the IC50 amounted to 2.51 µM.
With `C[N+](C)(C)CC1Cc2ccccc2C1=O` (stereo unspecified), the outcome was inactive.
Take `CCC(C)C1NC(=O)C2CCCN2C(=O)CNC(=O)C(C)NC(=O)C(Cc2ccccc2)NC(=O)C(C(C)C)NC1=O` (stereo unspecified) (cyclo(GPIVFA); configuration not given here): the outcome was inactive.
Consider `CCOC(=O)/N=c1/nc2ccn(C)c2c(NC(=O)OCC)s1`, for which the EC50 is > 209 µM and the IC50 is > 209 µM.
Take `CCOc1cc2c(cc1OC)c[n+](C)c1c3cc(OC)c(OC)cc3ccc21`: the outcome was inactive.
Turning to `Cc1ccc(C2=[N+]([O-])c3ccccc3C2=O)cc1`, the result was inactive.
Take `Cc1c(C2(c3cc(Br)c(O)c(Br)c3C)OS(=O)(=O)c3ccccc32)cc(Br)c(O)c1Br`: the outcome was inactive.
Take `CCCCCC(=O)NC(=S)Nc1nn[nH]n1`: the EC50 was > 200 µM and the IC50 is > 200 µM.
Turning to `N#CCCN(CCCN(CCCN(C(=O)Nc1ccccc1)c1ccccc1)C(=O)Nc1ccccc1)C(=O)Nc1ccccc1`, the EC50 was > 200 µM and the IC50 is 87.1 µM.
For `Cc1ccc(S(=O)(=O)SCCN)cc1`, the EC50 is > 115 µM and the concentration for half-maximal inhibition (IC50) is > 100 µM.
On to `CC(=O)/C(=C/c1cccc(F)c1)C(=O)c1ccccc1`, for which the EC50 is > 19.5 µM and the 50% inhibitory concentration (IC50) is > 19.5 µM.
Turning to `O=[N+]([O-])c1ccccc1S(=O)(=O)c1ccccc1[N+](=O)[O-]`, the EC50 is 1.26 µM and the 50% inhibitory concentration (IC50) is 145 µM.
Regarding `CC1(C)CC(Br)(C(Br)c2ccccc2)C(=O)c2ccccc21` (stereo unspecified), the EC50 is > 200 µM and the half-maximal inhibitory concentration (IC50) was found to be 3.89 µM.
The matching figures for `N#COc1ccc(Oc2ccccc2)cc1`: > 24.5 µM and > 24.5 µM.
